Experimental data: the supplement of paper PMC8497498

Key:
[1] = tested on: Plasmodium vivax liver stage (primary human hepatocyte culture)
Experimental: (§1)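 Dose-response of P. vivax liver stages in primary human hepatocytes, with 8 points (10 uM-[…], v1) or 12 points in duplicate (50 uM-280 pM, v2). Read-out is high-content imaging of schizont net growth area, hypnozoite quantity and hepatic nuclei. EC50 and CC20 (20% nuclei loss) were fitted in CDD Vault from the highest-quality independent experiment; toxic-dose bell-shaped points were masked. '>' marks the highest concentration with less than 50% activity, and ND means a non-sigmoidal curve.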

[2] = tested on: Plasmodium cynomolgi Berok K4 asexual blood stage; test: EC50 asexual blood stage growth
Experimental: (§2)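 The Reference Compound Library was tested by 10-point 3-fold dose response against P. cynomolgi Berok K4 asexual blood stages (SYBR proliferation assay, mefloquine background control). Culture medium contained 0.5% AlbuMAX or 20% M. fascicularis serum. P. falciparum 3D7 was tested in a 72-h SYBR Green assay with 0.5% AlbuMAX. Values are geometric mean EC50 over independent experiments; 10 uM is the top dose.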

[3] = tested on: Plasmodium falciparum 3D7 asexual blood stage; test: EC50 asexual blood stage growth; settings: serum: 0.5% AlbuMAX
Experimental: as §2

[4] = tested on: primary human hepatocytes; test: CC20 hepatic nuclei (20% reduction); higher = less toxic
Experimental: as §1

[5] = tested on: Plasmodium vivax liver stage (primary human hepatocyte culture); test: maximum inhibition of schizont net growth area; higher = more active
Experimental: as §1

[6] = P. vivax isolate: Pv914, hepatocyte lot: BGW, assay mode: Prophylactic, 6-day
[7] = P. vivax isolate: Pv914, hepatocyte lot: BGW, assay mode: Radical Cure, 8-day (treatment from day 5 post-infection)
[8] = serum: 20% M. fascicularis serum
[9] = P. vivax isolate: Pv668, hepatocyte lot: BGW, assay mode: Radical Cure, 8-day (treatment from day 5 post-infection)
[10] = P. vivax isolate: Pv360, hepatocyte lot: UBV, assay mode: Radical Cure, 8-day (treatment from day 5 post-infection)
[11] = P. vivax isolate: Pv992, hepatocyte lot: BGW, assay mode: Prophylactic, 6-day
[12] = P. vivax isolate: Pv360, hepatocyte lot: UBV, assay mode: Prophylactic, 6-day
[13] = P. vivax isolate: IVS16-38, hepatocyte lot: PDC, assay mode: Prophylactic, 6-day
[14] = P. vivax isolate: Pv923, hepatocyte lot: BGW, assay mode: Radical Cure, 8-day (treatment from day 5 post-infection)

| Compound | EC50 hypnozoite quantity [1, 6] [µM] | EC50 schizont net growth area [1, 6] [µM] | EC50 asexual blood stage growth ([2]; serum: 0.5% AlbuMAX) [µM] | EC50 asexual blood stage growth [2, 8] [µM] | EC50 asexual blood stage growth [3] [µM] | CC20 hepatic nuclei [4, 6] [µM] | maximum inhibition [5, 6] [%] | also measured |
| --- | --- | --- | --- | --- | --- | --- | --- | --- |
| CS(=O)(=O)c1ccc(-c2cnc(N)c(-c3ccc(C(F)(F)F)nc3)n2)cc1 | 0.00729 | 0.00476 | 4.88 | 0.629 | 0.177 | > 10 | 101 | EC50 hypnozoite quantity [1, 7]: > 10 µM; EC50 schizont net growth area [1, 7]: 0.0239 µM; CC20 hepatic nuclei [4, 7]: > 10 µM; maximum inhibition [5, 7]: 96.4% |
| O=C(NCCN1CCCC1)c1cc(-c2ccc(CN3CCOCC3)cc2)nc2ccc(F)cc12 | 0.0104 | 0.00257 | 0.0015 | 0.0007 | 0.001 | > 10 | 101 | EC50 hypnozoite quantity [1, 7]: > 10 µM; EC50 schizont net growth area [1, 7]: 0.00235 µM; CC20 hepatic nuclei [4, 7]: > 10 µM; maximum inhibition [5, 7]: 92.3% |
| OC(c1cc(C(F)(F)F)nc2c(C(F)(F)F)cccc12)C1CCCCN1 (racemic) [(±)-Mefloquine] | > 10 | > 1.11 | 0.219 | 0.0664 | 0.0901 | > 3.33 | 86 |  |
| O[C@H](c1cc(C(F)(F)F)nc2c(C(F)(F)F)cccc12)[C@@H]1CCCCN1 [(+)-Mefloquine] | 14.8 | 5.73 | 0.0312 | 0.06 | 0.0179 | 13.2 | 98.7 | EC50 hypnozoite quantity [1, 9]: > 50 µM; CC20 hepatic nuclei [4, 9]: 23.3 µM; maximum inhibition [5, 9]: 93.9% |
| CCN(CC)CCCNc1ccnc2cc(Cl)ccc12 [AQ-13] | > 10 |  | 0.0787 | 0.0559 | 0.016 | > 10 | 56.1 |  |
| Cc1nc(Nc2ncc(N3CCN(C)C(C)C3)c(Nc3cc(C)n(C)n3)n2)cc(C2CC2)c1F (stereo unspecified) [AZ412] | > 3.33 | 0.686 | 0.0768 | 0.0567 | 0.0232 | > 10 | 99.7 | EC50 hypnozoite quantity [1, 10]: > 10 µM; EC50 schizont net growth area [1, 10]: 0.381 µM; CC20 hepatic nuclei [4, 10]: > 10 µM; maximum inhibition [5, 10]: 104% |
| CCN(CC)Cc1cc(Nc2ccnc3cc(Cl)ccc23)ccc1O [Amodiaquine] |  |  | 0.0198 | 0.0081 | 0.006 |  |  | EC50 hypnozoite quantity [1, 11]: > 10 µM; EC50 schizont net growth area [1, 11]: 0.0141 µM; CC20 hepatic nuclei [4, 11]: > 10 µM; maximum inhibition [5, 11]: 87.2% |
| COC1OC2OC3(C)CCC4C(C)CCC(C1C)C24OO3 (stereo unspecified) [Artemether] |  |  | 0.0068 | 0.0065 | 0.0575 |  |  | EC50 hypnozoite quantity [1, 12]: > 10 µM; CC20 hepatic nuclei [4, 12]: > 10 µM; maximum inhibition [5, 12]: 60.4% |
| CCC1OC(=O)C(C)C(OC2CC(C)(OC)C(O)C(C)O2)C(C)C(OC2OC(C)CC(N(C)C)C2O)C(C)(O)CC(C)CN(C)C(C)C(O)C1(C)O (stereo unspecified) [Azithromycin] | > 10 | > 0.37 | > 10 | > 10 | > 10 | > 10 | 63.3 |  |
| CC(C)N=C(N)N=C(N)Nc1ccc(Cl)c(Cl)c1 [Chlorproguanil] | > 10 | > 1.11 | 8.45 | > 10 | 5.34 | > 10 | 98.1 |  |
| CCCCCCC[C@@H]1CN[C@H](C(=O)NC(C(C)Cl)C2O[C@H](SC)[C@H](O)[C@@H](O)[C@H]2O)C1 (stereo partly drawn) [Cis-Mirincamycin] | > 10 |  | 7.99 | > 10 | > 10 | > 10 | 69.3 |  |
| Cc1cc(Nc2ccc(S(F)(F)(F)(F)F)cc2)n2nc(C(C)(F)F)nc2n1 [DSM265] |  |  | 0.0064 | 0.0625 | 0.011 |  |  | EC50 hypnozoite quantity [1, 13]: > 3.07 µM; EC50 schizont net growth area [1, 13]: 0.126 µM; EC50 hypnozoite quantity [1, 14]: > 10 µM; EC50 schizont net growth area [1, 14]: > 1.11 µM; CC20 hepatic nuclei [4, 13]: > 3.07 µM; CC20 hepatic nuclei [4, 14]: > 10 µM; maximum inhibition [5, 13]: 100%; maximum inhibition [5, 14]: 69.4% |
| COc1cc2[nH]c(C)c(-c3ccc(Oc4ccc(OC(F)(F)F)cc4)cc3)c(=O)c2cc1Cl [ELQ-300] | > 1.11 | 0.0576 | 0.042 | 0.0033 | 0.0471 | > 10 | 97.9 |  |
| CCNCc1cc(Nc2ccnc3cc(Cl)ccc23)ccc1O [N-Desethylamodiaquine] | > 10 | > 3.33 | 0.0222 | 0.0115 | 0.056 | > 10 | 74.5 |  |
| COc1cc(NC(C)CCCN)c2nccc(C)c2c1Oc1ccc(Cl)c(Cl)c1 (stereo unspecified) [NPC-1161B] | > 10 | > 0.37 | 2.76 | 8.2 | 2.86 | > 10 | 91.9 |  |
| CCc1nc(N)nc(N)c1OCCCOc1ccccc1CCC(=O)O [P218] | > 10 | 0.0511 | 0.0007 | 0.0017 | 0.002 | > 10 | 101 |  |
| CCN(CC)CCCC(C)Nc1cc(OC)cc2cccnc12 (stereo unspecified) [Pamaquine] |  |  | 0.325 | 0.187 | 3.95 |  |  | EC50 hypnozoite quantity [1, 11]: > 3.33 µM; EC50 schizont net growth area [1, 11]: > 10 µM; CC20 hepatic nuclei [4, 11]: > 10 µM; maximum inhibition [5, 11]: 61% |
| CCc1nc(N)nc(N)c1-c1ccc(Cl)cc1 [Pyrimethamine] |  |  | 0.0218 | 0.0072 | 0.0366 |  |  |  |
| COc1ccc2nc3cc(Cl)ccc3c(Nc3cc(CN4CCCC4)c(O)c(CN4CCCC4)c3)c2n1 [Pyronaridine] | > 3.33 | > 3.33 | 0.0035 | 0.004 | 0.005 | 7.91 | 99.4 |  |
| C=CC1CN2CCC1CC2C(O)c1ccnc2ccc(OC)cc12 (stereo unspecified) [Quinidine] |  |  | 0.0308 | 0.0185 | 0.0739 |  |  |  |
| C=C[C@H]1C[N@@]2CC[C@H]1C[C@H]2[C@H](O)c1ccnc2ccc(OC)cc12 [Quinine] |  |  | 0.127 | 0.174 | 0.183 |  |  |  |
| Cc1cc2nc3c(=O)[nH]c(=O)nc-3n(CC(O)C(O)C(O)CO)c2cc1C (stereo unspecified) [Riboflavin] |  |  | > 10 | > 10 | > 10 |  |  |  |
| CCN(CC)CCCCCCNc1cc(OC)cc2c(C)ccnc12 [Sitamaquine] |  |  | 0.773 | 1.05 | 0.73 |  |  |  |
| Nc1ccc(S(=O)(=O)Nc2ncccn2)cc1 [Sulfadiazine] |  |  | > 10 | 8.32 | > 10 |  |  |  |
| COc1cc(C)c2c(Oc3cccc(C(F)(F)F)c3)c(OC)cc(NC(C)CCCN)c2n1 (stereo unspecified) [Tafenoquine] |  |  | 5.29 | > 10 | 5.94 |  |  |  |
| COc1cc(Cc2cnc(N)nc2N)cc(OC)c1OC [Trimethoprim] |  |  | 0.793 | 0.496 | 5.28 |  |  |  |
